Reference: US20080108645A1, “Dihydrotetrabenazines And Pharmaceutical Compositions Containing Them” (CAMBRIDGE LABORATORIES, (IRELAND), LTD., priority 2004, published 2008)
Entries after “also recorded” stand apart in the source; their conditions may differ.

System: 5-HT1D/1B receptors
Assay: 5-HT1D/1B binding assay, [N-methyl 3H] GR-125743, rat forebrain P2 membranes
Method: The ability of Compound B and Compound C to bind to 5-HT1D/1B receptors was tested using an assay based on the one described by Millan, M J et al. (2002) Pharmacol. Biochem. Behav. […] [N-methyl ^3H] GR-125743 was used as the radioligand for both 5-HT1D and 5-HT1B receptors. Adult SD rat forebrain P2 membranes (Chazot et al., 1993) were used for the assay. The assay buffer used was 50 mM Tris-HCl pH 7.7 at room temperature containing 4 mM calcium chloride, 0.1% ascorbic acid and 10 μM pargyline. 5-HT (10 μM) was used to define non-specific binding. Incubation with 1 nM [^3H] GR-125743 was carried out for 1 hour at room temperature, and the reaction was terminated by rapid filtration using a Brandel Harvester through GF/B filters pre-soaked in 0.1% polyethyleneimine, followed by three washes with ice-cold buffer (supplemented with 0.1% BSA). A dose range of 10^−10-10^−4M was utilised. The resultant competition curves were analysed using the GraphPad Prism 4 package.

Structure (SMILES)	affinity/activity at 5-HT1D/1B (in words)
COc1cc2c(cc1OC)[C@H]1C[C@H](O)[C@@H](CC(C)C)CN1CC2 (single isomer, unassigned) [Isomer B, 3,11b-cis-dihydrotetrabenazine]	low affinity for 5-HT1D/1B receptors; also recorded: no inhibitory activity
COc1cc2c(cc1OC)[C@H]1C[C@@H](O)[C@@H](CC(C)C)CN1CC2 (single isomer, unassigned) [Isomer C, 3,11b-cis-dihydrotetrabenazine]	low affinity for 5-HT1D/1B receptors; also recorded: no inhibitory activity
